In the NIST ThermoML archive (doi:10.1016/j.tca.2006.03.023):
Numbers after ± are expanded uncertainties.

Details: 298 K; 101.33 kPa; Crystal; X-ray diffraction

mass density [kg/m3]	Compound
1476 ± 2	O=P([O-])([O-])[O-].[Eu+3] [europium phosphate]
1428 ± 2	O=P([O-])([O-])[O-].[Sm+3] [samarium phosphate]
